For test [1], the system named is thrombus (rat arteriovenous bypass thrombolysis model). In words: Thrombolytic activity via intravenous administration, rat arteriovenous bypass thrombolysis model. In kind it is in vivo, male SD rats. As to conditions: for Weight reduction in thrombus: n = 10. As to the method: 200-220 g male SD rats were anesthetized with 20% urethane solution (6 mL/kg, ip). Anesthetized rats were fixed in a supine position, and the right common carotid artery was separated, clamped at the proximal end with an arterial clip, and penetrated with a suture at the proximal and distal ends, respectively. The suture at the distal end is clipped tightly by a hemostatic clamp at the skin/fur. Cannulation was performed at the distal end, the arterial clamp was loosened, and about 1 ml arterial blood was discharged into a 1 mL EP vial. 0.1 mL rat arterial blood was injected into a vertically fixed glass tube (15 mm in length, with an inner diameter of 2.5 mm and an outer diameter of 5.0 mm, sealed with a rubber stopper at the bottom), into which was immediately inserted a thrombus immobilization screw made of stainless steel. […] 40 min after the blood coagulated, the rubber stopper at the bottom of the glass tube was removed, the stem of the thrombus immobilization screw was fixed by forceps, and the thrombus-wrapped thrombus immobilization screw was carefully taken out from the glass tube and precisely weighted.
A bypass cannula was composed of 3 segments. The middle segment was a polyethylene tube having a length of 60 mm and an inner diameter of 3.5 mm. The segments on both ends were similar polyethylene tubes having a length of 100 mm, an inner diameter of 1 mm and an outer diameter of 2 mm, one end of which was pulled to form a tip, with an outer diameter of 1.0 mm (used in inserting into the rat carotid artery or vein), the other end of which was sheathed by a polyethylene tube having a length of 7 mm and an outer diameter of 3.5 mm (thickened, used in inserting into the polyethylene tube of the middle segment). The inner wall of the 3-segment cannula was entirely silylated. The thrombus-wrapped thrombus immobilization screw was placed into the polyethylene tube of the middle segment, and both ends of the tube sheath the thickened ends of two polyethylene tubes. The cannula was filled with a heparin solution in normal saline (50 IU/kg) through the tip end by using an injector and was ready for use.
The left external jugular vein of the rat was separated and penetrated with a suture at the proximal and distal ends respectively, and the distal end was ligated. An incision was carefully made on the exposed left external jugular vein, and the tip of the bypass cannula prepared as described above was inserted into the proximal end of the incision in the left external jugular vein, away from the stem of the thrombus immobilization screw in the middle segment of the bypass cannula (which accommodated the accurately weighed thrombus immobilization screw). A precise amount of heparin in saline (50 IU/kg) was injected through the tip at the other end by using an injector. At this moment, without removing the injector from the polyethylene tube, the tube between the injector and the polyethylene tube was clamped with a hemostatic clamp. The blood flow was stopped by clamping the proximal end of the right common carotid artery with an arterial clip, and an incision was cut carefully across the common carotid artery near the clip. The injector was pulled out of the polyethylene tube through the tip, and the tip of the polyethylene tube was then inserted into the proximal end of the artery incision. Both ends of the bypass cannula were fixed to the artery or vein with #4 sutures.
A scalp needle was used to pass saline solution, a urokinase in saline solution or varied concentrations of the compounds in saline solution through the middle section of the bypass cannula (which accommodated the accurately weighed thrombus immobilization screw) to a position at the proximal vein and away from the thrombus immobilization screw. The artery clip was then removed to allow blood to flow from the artery to the vein through the bypass cannula. A rat arteriovenous bypass thrombolysis model was thus established. […]

The next test deals with stroke rats. In words: Therapeutic effect in stroke rats (microthrombus injected into the brain, treated at once): Zealonga score and TTC infarction volume. Format: in vivo, SD male rats. Particulars: for Neural function scores: Zealonga method, 24 hours after awake, n = 9; for Percentage of infarction volume: cerebral infarction, TTC, n = 7. As to the method: SD male rats (280-300 g) were randomly divided to UK positive control group at a dose of 20000 IU/kg, blank control group with normal saline solution, compound control group with PAK at a dose of 5 μmol/kg, and compound 5Ak group at a dose of 1 μmol/kg (high), 0.1 μmol/kg (medium), and 0.01 μmol/kg (low). A 10% chloral hydrate solution (400 mg/kg) was injected intraperitoneally into rats for anesthesia. […] The 10 μl blood drawn was placed in a 1 mL EP vial and kept at RT for 30 min to allow the coagulation of blood and then transferred into a −20° C. refrigerator for 1 hour to allow the formation of solid coagulation. 1 hour later, the blood clots were taken out, 1 mL normal saline was added therein, and then the blood clots were broken into relatively uniform microthrombus by a steel spatula. The microthrombus suspension was then transferred into a 1 mL injector for use. […] The common jugular vein was separated, and then injected with UK at the dose of 20000 IU/kg, normal saline solution, or compound 5Ak at the dose of 1 μmol/kg. The vein was ligated. 3 drops of penicillin was dropped on the wound. The wound was sewed, and animals were waited for awake.
24 hours after the rats were awake, the degree of damage in neural function was evaluated by the Zealonga method. […] The evaluation results were statistically analyzed and subjected to t-test.
After the rats were awake for 24 hours and assessed for their degree of damage in neural function by Zealonga method, they were anesthetized with urethane followed by immediate decapitation and removal of the brain. Brain tissues were kept in a −20° C. refrigerator for 2 hours, and coronal sections of about 2 mm were successively sliced from the prefrontal end for a total of 5 sections and then placed into a 2% TTC solution to incubate without light at 37° C. for 30 min. The color change in brain sections was observed: normal brain tissues were stained red by TTC, while ischemic brain tissues appeared in white. Photographs were taken by using a digital camera and processed with image statistics software, and the volume of infarction in brain tissues and the area of normal brain tissues in the coronal sections were calculated. The ratio of the cerebral infarction volume of each group was statistically calculated and subject to t-test.

Each structure is given as a SMILES string. Entries after “also recorded” stand apart in the source; their conditions may differ. Marks after values point to notes of the source that are not given here.

For the molecule `C[C@H](NC(=O)[C@@H]1CCCN1)C(=O)N[C@@H](CCCCN)C(=O)NCCCC[C@H](NC(=O)[C@@H]1Cc2cc(O)c(O)cc2C(C)(C)N1)C(=O)O` [Compound 5Ak, 3S-6,7-dihydroxy-1,1-dimethyl-1,2,3,4-tetrahydro-isoquinoline-3-acyl-Lys(Pro-Ala-Lys)], the “Weight reduction in thrombus” value in test [1] (Table 2, 5Ak 0.001 nmol/kg i.v.) is 11.73 ± 2.15 ^c mg; in test [1] (Table 2, 5Ak 0.01 nmol/kg i.v.) it was 14.62 ± 2.46 b mg; in test [1] (Table 2, 5Ak 0.1 nmol/kg i.v.), 21.61 ± 4.62^a mg; in test [1] (rat, intravenous injection, 5Aa-p 0.1 nmol/kg, 1 hour), 19.38 ± 2.81^b mg. In addition, in test [1] (rat, intravenous, 0.1 nmol/kg (5Ak also 0.01 and 0.001 nmol/kg), urokinase 20000 U/kg), the “Thrombolytic activity, result in words” value is “comparable to that of urokinase; also recorded: higher thrombolytic activity; also recorded: highest thrombolytic activity; also recorded: obvious dose-effect relationship”. In the test with stroke rats (5Ak 1, 0.1, 0.01 μmol/kg), the “Therapeutic effect in stroke rats, result in words” value is “effectively prevent the brain ischemia rats from occurrence of dyskinesia and cerebral infarction; also recorded: dose dependent”. The Neural function scores is 2.30 ± 0.95^c in the test on stroke rats (5Ak 0.01 μmol/kg), 1.40 ± 1.07^b in the test with stroke rats (5Ak 0.1 μmol/kg) and 1.10 ± 0.74^a with stroke rats (5Ak 1 μmol/kg). The “Percentage of infarction volume” value in the test on stroke rats (5Ak 0.01 μmol/kg) was 18.05 ± 5.77^c %; in the test with stroke rats (5Ak 0.1 μmol/kg), 9.88 ± 2.52^b %; in the test on stroke rats (5Ak 1 μmol/kg), 3.44 ± 1.99^a %.

The values are drawn from patent publication US10351594B2, “Process for preparing compounds having triple activities of thrombolysis, antithrombosis, and radical scavenging” (Shanghai Lumosa Therapeutics Co., Ltd., priority 2013, dated 2019).
